Consider 51 compounds from PubChem BioAssay AID449764 (Southern Research Specialized Biocontainment Screening …, 2010).

SMILES strings stand for the structures.

This assay relates to Mycobacterium tuberculosis H37Rv growth inhibition, no glycerol. Nature of the assay: Confirmatory growth inhibition assay, Mycobacterium tuberculosis H37Rv, absence of glycerol (AID 449764).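 On all read-outs here: growth read after 7 days of incubation.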 The note with it: for IC90: measured here: IC90 growth inhibition.

In the case of `CC1(C)CC(=O)C2=C(C1)OC(N)=C([N+](=O)[O-])C2c1ccc(C#N)s1` (centres undefined), the IC50 was 79.7 µM and the 90% effect concentration (IC90) was determined as 97.7 µM.

In the case of `CCOC(=O)c1[nH]c(CN2CCN(c3ccc(OC)cc3)CC2)c(C(=O)OCC)c1C`, the 50% inhibitory concentration (IC50) was 34.1 µM and the 90% effect concentration (IC90) came to 48.6 µM. In the case of `CC1CC2=C(CC1/C=N/NC(N)=S)C(C)(C)CCC2` (centres undefined), the IC50 was 18.3 µM and the IC90 amounted to 26.8 µM. On the same counts, the results for `CC(Oc1ccc(F)cc1)C(=O)Nc1sc2c(c1C(=O)NCc1cccnc1)CCCC2` (centres undefined) are 43.6 µM and 86 µM.

With `Cn1c(/C=N/Nc2nc3ccccc3[nH]2)nc2ccccc21`, the half-maximal inhibitory concentration (IC50) is 61.8 µM and the concentration for an effect of 90% (IC90) amounted to 79.8 µM. `COc1ccc(-c2cc(-c3ccc(OC)cc3)[nH]n2)cc1` returned an IC90 of over 50 µM. As to `Cc1ccc(CN2CCN(/N=C/c3ccc(Cl)c([N+](=O)[O-])c3)CC2)cc1`, the IC50 is 39.4 µM and the IC90 was 55.3 µM. The matching figures for `COc1ccc(C(=O)COC(=O)[C@H](C)Nc2ccc(C(F)(F)F)cc2[N+](=O)[O-])cc1`: 18.1 µM and over 25 µM. Consider `COc1ccccc1C1CC(c2c(-c3ccccc3)c3cc(Cl)ccc3[nH]c2=O)=NN1S(C)(=O)=O` (centres undefined), for which the concentration for an effect of 90% (IC90) is over 100 µM. Regarding `Oc1ccccc1N=Cc1ccc[nH]1`, the half-inhibitory concentration (IC50) is 4.6 µM and the IC90 was 6.04 µM. Turning to `O=Nc1c2nc3ccccc3n(O)c-2c2ccccc12`, the IC50 is 12.2 µM and the concentration for an effect of 90% (IC90) amounted to 13.7 µM. As for `CC(C)n1cnc2c(NCc3ccccc3)cc(Cc3ccc(F)cc3)cc21`, the IC50 was 34.4 µM and the IC90 came out at 49.3 µM.

Take `Cn1c2ccccc2c2cc(C(=O)NNC(=O)CCl)sc21`: the half-inhibitory concentration (IC50) is 4.41 µM and the IC90 was 8.11 µM.

For `CCOC(=O)CSc1nnc(-c2ccc(S(=O)(=O)NCc3cccs3)cc2)o1`, the concentration for half-maximal inhibition (IC50) was 5.1 µM and the IC90 amounted to 7.29 µM. Regarding `COc1cc2nc(N3CCN(c4cc(C)ccc4C)CC3)nc(N)c2cc1OC`, the IC50 is 15.3 µM and the concentration for an effect of 90% (IC90) was 18.7 µM. Regarding `CCc1ccc2c(c1)C1(C(=O)N2)N2CCCC2C(C(=O)c2ccc3ccccc3c2)C12C(=O)Nc1ccccc12` (centres undefined), the IC50 was 23.9 µM and the concentration for an effect of 90% (IC90) was 36.2 µM. On the same counts, the results for `O=C(CSCc1ccc([N+](=O)[O-])cc1)N/N=C/c1ccncc1` are 11.3 µM and 26 µM.

`O=C(/C=C/c1cc(Br)ccc1O)c1ccco1`: the IC50 is 15.7 µM and the 90% effect concentration (IC90) came to 20.4 µM. As for `O=C(CNC(=O)c1ccco1)OCc1ccc(C(=O)Oc2ccccc2)cc1`, the IC50 was 16.6 µM and the IC90 came out at 26.6 µM. For `CCOC(=O)CCCNC(=O)COC(=O)c1cc(Br)c(Br)s1`, the IC50 is 18.5 µM and the 90% effect concentration (IC90) was over 100 µM. Regarding `Cc1ccc(NC(=O)COC(=O)CCc2c[nH]c3ccccc23)cc1[N+](=O)[O-]`, the IC50 is 2.29 µM and the IC90 was determined as 6.16 µM. Consider `Cc1nonc1NC(=O)CSc1ccc(-c2ccccc2)nn1`, for which the 50% inhibitory concentration (IC50) was 41.2 µM and the IC90 is 58.9 µM. On the same counts, the results for `Cc1ccc2c(c1)c(/C=C/c1cc[n+](C)cc1)c(C)n2C` are 5.82 µM and 6.61 µM. Turning to `NN(Cc1ccccc1)C(=S)Nc1ccc(Cl)c(Cl)c1`, the IC50 was 25.2 µM and the IC90 worked out at 39.4 µM. On to `COc1cc(N=Nc2ccc3ccccc3c2)ccc1O`, for which the IC50 was 39.7 µM and the concentration for an effect of 90% (IC90) came to 59.1 µM. On the same counts, the results for `COc1cc(NC(=O)c2ccc(COc3ccccc3Br)o2)cc(OC)c1OC` are 67 µM and over 100 µM. Consider `CC(/C=C/c1ccccc1)=N\NC(N)=S`, for which the half-inhibitory concentration (IC50) is 4.99 µM and the IC90 amounted to 12.3 µM. The matching figures for `Cc1cc(C=C2C(=O)NC(=S)NC2=O)c(C)n1C1CCCC1`: 34.9 µM and 73.9 µM. On to `Cc1ccc(-c2cc(-c3ccccc3C)[nH]n2)c(O)c1`, for which the IC50 was 38.4 µM and the concentration for an effect of 90% (IC90) was over 100 µM. On the same counts, the results for `O=C(c1ccccc1)c1nn(-c2ccc(Cl)cc2)c(=O)cc1C(F)(F)F` are 20.1 µM and 31.1 µM. The matching figures for `CCC[C@@H]1C[C@@H](C(=O)NC(C(C)Cl)[C@H]2O[C@H](SC)[C@H](O)[C@@H](O)[C@H]2O)N(C)C1` (some centres undefined): 3.91 µM and 11.5 µM. `CSc1ccc(CNC(=O)c2ccc(NC(=O)C3=CSCCO3)cc2)cc1`: the 50% inhibitory concentration (IC50) was 7.07 µM and the IC90 was determined as 25.5 µM. `CCc1ccc(-c2nn(-c3ccccc3)cc2CSC(=N)N)cc1`: the concentration for half-maximal inhibition (IC50) is 16.5 µM and the IC90 worked out at 20.4 µM. In the case of `CC(C)CCC[C@@H](C)[C@H]1CC[C@H]2[C@@H]3C(=O)C=C4C[C@@H](O)CC[C@]4(C)[C@H]3CC[C@]12C`, the IC50 was 38.5 µM and the IC90 is 62.9 µM. Turning to `COc1ccccc1C1CCN(Cc2ccc3ccccc3c2)CC1`, the IC50 was 21.8 µM and the IC90 was found to be 24.6 µM.

Turning to `CCN1C(N(C)CCc2c[nH]c3ccccc23)=N[C@@H](c2cccc(C(F)(F)F)c2)C(C(=O)OC)=C1C`, the IC50 is 22 µM and the concentration for an effect of 90% (IC90) was determined as 25 µM. Regarding `Cc1ccc(NC(=O)C2=C(O)CCn3c2nc2ccccc23)cc1`, the IC50 is 13.5 µM and the concentration for an effect of 90% (IC90) is over 100 µM. For the compound `c1ccc(-c2nccc(-c3ccc(-n4cnc5ccccc54)cc3)n2)nc1`, the half-inhibitory concentration (IC50) was 19 µM and the 90% effect concentration (IC90) was 23.7 µM. Turning to `COC(=O)CCc1nc2c(C#N)c(-c3ccc(Cl)cc3)ccn2n1`, the concentration for half-maximal inhibition (IC50) is 2.71 µM and the IC90 was 5.22 µM.

`CCN(C[C@H]1N[C@@](Cc2ccccc2)(C(=O)OC)[C@H]2C(=O)N(Cc3ccccc3)C(=O)[C@@H]12)C(=O)Nc1ccc(C(F)(F)F)cc1`: the concentration for half-maximal inhibition (IC50) is 8.06 µM and the concentration for an effect of 90% (IC90) was determined as 9.81 µM.

Regarding `O=C(CN1CCN(c2ccccc2O)CC1)Nc1ccccc1C(=O)NCCc1ccccc1`, the IC50 is 72.7 µM and the 90% effect concentration (IC90) is over 100 µM. For the compound `CCCn1c(CC)nc([N+](=O)[O-])c1S(=O)(=O)c1ccccc1`, the IC50 is 18.2 µM and the concentration for an effect of 90% (IC90) came to 23.6 µM. As to `N#CC(C#N)=c1ccc2c(c1)N1C3=C(CCCC3)CC3CCCCC31N=2` (centres undefined), the IC50 is 12.5 µM and the IC90 was determined as 13.5 µM. Turning to `CCOc1ccc(Nc2cc(C)nc(-n3nc(C)cc3C)n2)cc1`, the IC50 is 2.27 µM and the IC90 turned out to be 4.89 µM.

In the case of `N/C(=N\NC(=O)c1sccc1OCc1ccc(Cl)cc1Cl)c1ccccn1`, the IC50 was 32.3 µM and the concentration for an effect of 90% (IC90) was 39.4 µM. The matching figures for `O=C1C(=O)c2ccccc2-c2ccccc21`: 7.83 µM and 10.6 µM. `CCCCn1cnc2c(c(-c3ccccc3)c(-c3ccccc3)n2Cc2ccco2)c1=N`: the half-maximal inhibitory concentration (IC50) was 94.8 µM and the IC90 was over 100 µM. On the same counts, the results for `CCCCSCCCNC(=O)c1cn(CC)c2ccc(S(=O)(=O)N3CCOCC3)cc2c1=O` are 44.3 µM and 50.8 µM. `CC(C)NC(=S)N/N=C/c1c[nH]c2ccccc12` showed an IC90 of over 100 µM. For the compound `CCCn1c(Nc2nc3ccccc3n2C)nc2ccccc21`, the IC50 was 65.3 µM and the IC90 was found to be 75.8 µM. On to `O=C(OCC#CCSc1nnc(-c2cccc3ccccc23)o1)c1cccs1`, for which the concentration for half-maximal inhibition (IC50) was 47.3 µM and the IC90 was over 100 µM.
